Results on 2 molecules are retold here after PMC11945487 (Viruses, 2025).

The subject of one data set is HEK293 cells. The data set can be described thus: MTT cytotoxicity assay. The class given is cell-based, human. The note with it: HEK293, 24 h, 0 to 100 µM.
In the next data set the target is SARS-CoV-2 M^pro (Severe acute respiratory syndrome coronavirus 2, UniProt P0DTD1). The class given is binding. The note with it: modified Stern–Volmer plot.
For data set [1] the following is noted: ref [41]; cited from earlier work.

Take `O=c1c(O)c(-c2ccc(O)c(O)c2)oc2cc(O)cc(O)c12` [Quercetin]: in the data set on HEK293 cells, the “cytotoxicity / cell viability” value was “consistent and high cell viability”.
Turning to `COc1cc2ccc(=O)oc2cc1O` [Scopoletin, 6-methoxy-7-hydrocoumarian], on SARS-CoV-2 M^pro, the KSV worked out at 932000 M⁻¹ and the “number of binding sites” value is recorded as “one”. Also, in the data set with HEK293 cells, the “cytotoxicity / cell viability” value is “maintained acceptable cell viability”. In addition, the “solubility in organic solvents” value in data set [1] is “dissolves in organic solvents such as methanol and chloroform”.
